{
  "source": "patent US20240327393A1",
  "about": "(SIRONAX LTD., priority 2021, published 2024)",
  "data": [
    {"system": "HT-1080 (ATCC, CCL-121) cells", "assay": "HT-1080 cell viability assay with ferroptosis inducer RSL3 (Cell Titer-Glo)", "assay_type": "cell-based", "conditions": "Homo sapiens; HT-1080 cells treated with RSL3; 3-fold, 10-point dilution, 1.1 μM highest concentration; Table 2; read-out: EC50 (nM), ferroptosis inhibitory activity", "how_it_was_run": "(§1)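 HT-1080 cells (6000 per well) were cultured overnight at 37 °C, then co-treated with RSL3 and compound in a 3-fold, 10-point series topping at 1.1 μM. Viability was read by CellTiter-Glo luminescence and normalized to untreated controls. EC50 came from a sigmoidal non-linear regression fit.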", "units": {"EC50": "nM"}, "values": [
      {"smiles": "CC(C)(C)c1ccc(Nc2ccc3c(c2)OCC(=O)N3)cc1", "note": "[Compound 135, 7-((4-(tert-butyl)phenyl)amino)-2H-benzo[b][1,4]oxazin-3(4H)-one]", "EC50": "0.1 to 100"},
      {"smiles": "CC1CCN(c2ccc(Nc3ccc4c(c3)c(C(=O)O)cn4C)cc2)CC1", "note": "[Compound 353, 1-methyl-5-((4-(4-methylpiperidin-1-yl)phenyl)amino)-1H-indole-3-carboxylic acid]", "EC50": "0.1 to 100"},
      {"smiles": "O=C1COc2cc(Nc3ccc(N4CCC(C(F)(F)F)CC4)cc3)ccc2N1CCO", "note": "[Compound 83]", "EC50": "0.1 to 100"},
      {"smiles": "CCN1Cc2cc(Nc3ccc(N4CCC(C(F)(F)F)CC4)cc3)ccc2C1=O", "note": "[Compound 180, 2-ethyl-5-((4-(4-(trifluoromethyl)piperidin-1-yl)phenyl)amino) isoindolin-1-one]", "EC50": "0.1 to 100"},
      {"smiles": "COc1cc(N2CCC(C(F)(F)F)CC2)ccc1Nc1ccc2c(c1)OCC(=O)N2C", "note": "[Compound 90, 7-((2-methoxy-4-(4-(trifluoromethyl)piperidin-1-yl)phenyl)amino)-4-methyl-2H-benzo[b][1,4]oxazin-3(4H)-one]", "EC50": "0.1 to 100"},
      {"smiles": "CC1CN(c2ccc(Nc3ccc4c(c3)OCC(=O)N4C)cc2N(C)C)CC(C)O1", "note": "(stereo not drawn) [Compound 20, 7-((3-(dimethylamino)-4-(2,6-dimethylmorpholino)phenyl)amino)-4-methyl-2H-benzo[b][1,4]oxazin-3(4H)-one]", "EC50": "0.1 to 100"},
      {"smiles": "COCCOc1ccc(Nc2ccc3c(c2)CN(C)C3=O)cc1", "note": "[Compound 237, 5-((4-(2-methoxyethoxy)phenyl)amino)-2-methylisoindolin-1-one]", "EC50": "0.1 to 100"},
      {"smiles": "CC1CCN(c2ccc(Nc3ccc4c(c3)oc(=O)n4C)cc2)CC1", "note": "[Compound 273, 3-methyl-6-((4-(4-methylpiperidin-1-yl)phenyl)amino) benzo[d]oxazol-2(3H)-one]", "EC50": "0.1 to 100"},
      {"smiles": "CC1CCN(c2ccc(Nc3ccc4c(c3)c(N)nn4C)cc2)CC1", "note": "[Compound 352, 1-methyl-N5-(4-(4-methylpiperidin-1-yl)phenyl)-1H-indazole-3,5-diamine]", "EC50": "0.1 to 100"},
      {"smiles": "Cn1c(=O)oc2cc(Nc3ccc(N4CC(C)(C)C4)cc3)ccc21", "note": "[Compound 324, 6-((4-(3,3-dimethylazetidin-1-yl)phenyl)amino)-3-methylbenzo[d]oxazol-2(3H)-one]", "EC50": "0.1 to 100"},
      {"smiles": "Cc1c(Nc2ccc3c(c2)n(C)c(=O)n3C)ccc(N2CCC(C)CC2)c1F", "note": "[Compound 275, 5-((3-fluoro-2-methyl-4-(4-methylpiperidin-1-yl)phenyl)amino)-1,3-dimethyl-1,3-dihydro-2H-benzo[d]imidazol-2-one]", "EC50": "0.1 to 100"},
      {"smiles": "CN1Cc2cc(Nc3ccc(N4CCCCC4)cc3)ccc2C1=O", "note": "[Compound 217, 2-methyl-5-((4-(piperidin-1-yl)phenyl)amino)isoindolin-1-one]", "EC50": "0.1 to 100"},
      {"smiles": "NCCc1cc(=O)oc2cc(Nc3ccc(N4CCC(C(F)(F)F)CC4)cc3)ccc12", "note": "[Compound 122, 4-(2-aminoethyl)-7-((4-(4-(trifluoromethyl)piperidin-1-yl)phenyl)amino)-2H-chromen-2-one]", "EC50": "0.1 to 100"},
      {"smiles": "Cc1cc(N2CC(C)OC(C)C2)ccc1Nc1ccc2oc(=O)n(C)c2c1", "note": "(stereo not drawn) [Compound 446, 5-((4-(2,6-dimethylmorpholino)-2-methylphenyl)amino)-3-methylbenzo[d]oxazol-2(3H)-one]", "EC50": "0.1 to 100"},
      {"smiles": "CC1CCC(C)N1c1ccc(Nc2ccc3c(c2)oc(=O)n3C)cc1", "note": "(stereo not drawn) [Compound 325, 6-((4-(2,5-dimethylpyrrolidin-1-yl)phenyl)amino)-3-methylbenzo[d]oxazol-2(3H)-one]", "EC50": "0.1 to 100"},
      {"smiles": "CN(C)c1cc(Nc2ccc3c(=O)n(C)[nH]c3c2)ccc1N1CCCCC1", "note": "[Compound 304, 6-((3-(dimethylamino)-4-(piperidin-1-yl)phenyl)amino)-2-methyl-1,2-dihydro-3H-indazol-3-one]", "EC50": "0.1 to 100"},
      {"smiles": "CNCCCN1C(=O)COc2cc(Nc3ccc(N4CCC(C(F)(F)F)CC4)cc3)ccc21", "note": "[Compound 41, 4-(3-(methylamino)propyl)-7-((4-(4-(trifluoromethyl)piperidin-1-yl)phenyl)amino)-2H-benzo[b][1,4]oxazin-3(4H)-one]", "EC50": "0.1 to 100"},
      {"smiles": "COCCOCCN1Cc2cc(Nc3ccc(N4CCC(C(F)(F)F)CC4)cc3)ccc2C1=O", "note": "[Compound 198, 2-(2-(2-methoxyethoxy)ethyl)-5-((4-(4-(trifluoromethyl)piperidin-1-yl)phenyl)amino)isoindolin-1-one]", "EC50": "0.1 to 100"},
      {"smiles": "Cc1cc(N2CC(C)OC(C)C2)ccc1Nc1ccc2c(c1)OCC(=O)N2", "note": "(stereo not drawn) [Compound 96]", "EC50": "0.1 to 100"},
      {"smiles": "CC1CN(c2ccc(Nc3ccc4c(c3)C(C)(C)C(=O)N4C)cc2)CC(C)O1", "note": "(stereo not drawn) [Compound 428, 5-((4-(2,6-dimethylmorpholino)phenyl)amino)-1,3,3-trimethylindolin-2-one]", "EC50": "0.1 to 100"}
    ]},
    {"system": "HT-1080 (ATCC, CCL-121) cells", "assay": "HT-1080 cell viability assay with ferroptosis inducer RSL3 (Cell Titer-Glo)", "assay_type": "cell-based", "conditions": "Homo sapiens; HT-1080 cells treated with RSL3; 3-fold, 10-point dilution, 1.1 μM highest concentration; Table 3; read-out: EC50 (nM), ferroptosis inhibitory activity", "how_it_was_run": "as §1", "units": {"EC50": "nM"}, "values": [
      {"smiles": "Cc1cc(N2CCC(C(F)(F)F)CC2)ccc1Nc1ccn2ccnc2c1", "note": "[Compound 606, N-(2-methyl-4-(4-(trifluoromethyl)piperidin-1-yl)phenyl) imidazo[1,2-a]pyridin-7-amine]", "EC50": "100 to 1000"},
      {"smiles": "Cc1cc(N2CCCC2)ccc1Nc1ccc2c(c1)OCC(=O)N2", "note": "[Compound 563, 7-((2-methyl-4-(pyrrolidin-1-yl)phenyl)amino)-2H-benzo[b][1,4]oxazin-3(4H)-one]", "EC50": "0.1 to 100"},
      {"smiles": "Cc1cc(N2CCCCC2)ccc1Nc1ccc2c(c1)OCC(=O)N2", "note": "[Compound 470, 7-((2-methyl-4-(piperidin-1-yl)phenyl)amino)-2H-benzo[b][1,4]oxazin-3(4H)-one]", "EC50": "0.1 to 100"},
      {"smiles": "Cc1cc(N2CCC(C(F)(F)F)CC2)ccc1Nc1ccc2c(c1)C(=O)NCC(=O)N2", "note": "[Compound 644, 7-((2-methyl-4-(4-(trifluoromethyl)piperidin-1-yl)phenyl)amino)-3,4-dihydro-1H-benzo[e][1,4]diazepine-2,5-dione]", "EC50": "0.1 to 100"},
      {"smiles": "Cc1cc(N2CCC(F)C2)ccc1Nc1ccc2c(c1)OCC(=O)N2", "note": "(stereo not drawn) [Compound 599, 7-{[4-(3-fluoropyrrolidin-1-yl)-2-methylphenyl]amino}-2,4-dihydro-1,4-benzoxazin-3-one]", "EC50": "0.1 to 100"},
      {"smiles": "Cc1cc(N2CC(C)OC(C)C2)ccc1Nc1cnc2c(c1)OCC(=O)N2C", "note": "(stereo not drawn) [Compound 457, 7-((4-(2,6-dimethylmorpholino)-2-methylphenyl)amino)-4-methyl-2H-pyrido[3,2-b][1,4]oxazin-3(4H)-one]", "EC50": "0.1 to 100"},
      {"smiles": "Cc1cc(N2C[C@@H](C)O[C@@H](C)C2)ccc1Nc1ccc2cn[nH]c2c1", "note": "[Compound 648, N-(2-methyl-4-((2S,6R)-2,6-dimethylmorpholino)phenyl)-1H-indazol-6-amine]", "EC50": "0.1 to 100"},
      {"smiles": "Cc1cc(N2CCC(C(F)(F)F)CC2)ccc1Nc1ccc2oc(=O)[nH]c2c1", "note": "[Compound 467, 5-((2-methyl-4-(4-(trifluoromethyl)piperidin-1-yl)phenyl)amino) benzo[d]oxazol-2(3H)-one]", "EC50": "0.1 to 100"},
      {"smiles": "CN1C(=O)COc2cc(Nc3ccc(N4CCC(C(F)(F)F)CC4)cc3Cl)ccc21", "note": "[Compound 451, 7-((2-chloro-4-(4-(trifluoromethyl)piperidin-1-yl)phenyl)amino)-4-methyl-2H-benzo[b][1,4]oxazin-3(4H)-one]", "EC50": "0.1 to 100"},
      {"smiles": "Cc1cc(N2CCC(C(F)(F)F)CC2)ccc1Nc1ccc2c(c1)OCC(=O)NC2", "note": "[Compound 608, 8-((2-methyl-4-(4-(trifluoromethyl)piperidin-1-yl)phenyl)amino)-4,5-dihydrobenzo[f][1,4]oxazepin-3(2H)-one]", "EC50": "0.1 to 100"}
    ]}
  ]
}
